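At the GI50, growth is halved. At the TGI there is no net growth.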
Experiments:
Test in all cases: NCI tumour cell line growth inhibition, 384-well format
OVCAR-3 ovarian = system: OVCAR-3 ovarian
SK-MEL-28 melanoma = system: SK-MEL-28 melanoma
IGROV1 ovarian = system: IGROV1 ovarian
BT-549 breast = system: BT-549 breast
SNB-75 CNS = system: SNB-75 CNS
SF-539 CNS = system: SF-539 CNS
NCI-H460 NSCLC = system: NCI-H460 NSCLC
HOP-62 NSCLC = system: HOP-62 NSCLC
M14 melanoma = system: M14 melanoma
SR leukemia = system: SR leukemia
TK-10 renal = system: TK-10 renal
SK-MEL-5 melanoma = system: SK-MEL-5 melanoma
CAKI-1 renal = system: CAKI-1 renal
HCT-116 colon = system: HCT-116 colon
COLO 205 colon = system: COLO 205 colon
A549 NSCLC = system: A549 NSCLC
HS 578T breast = system: HS 578T breast
SW-620 colon = system: SW-620 colon
RXF 393 renal = system: RXF 393 renal
NCI-H23 lung = system: NCI-H23 lung
SF-268 CNS = system: SF-268 CNS
UACC-257 melanoma = system: UACC-257 melanoma
CCRF-CEM leukemia = system: CCRF-CEM leukemia
MDA-MB-231 breast = system: MDA-MB-231 breast
NCI-H522 lung = system: NCI-H522 lung
A498 renal = system: A498 renal
HCC-2998 colon = system: HCC-2998 colon
HOP-92 NSCLC = system: HOP-92 NSCLC
OVCAR-4 ovarian = system: OVCAR-4 ovarian
K-562 leukemia = system: K-562 leukemia
SNB-19 CNS = system: SNB-19 CNS
EKVX NSCLC = system: EKVX NSCLC
T-47D breast = system: T-47D breast
MDA-MB-468 breast = system: MDA-MB-468 breast
HCT-15 colon = system: HCT-15 colon
MCF7 breast = system: MCF7 breast
OVCAR-5 ovarian = system: OVCAR-5 ovarian
DU-145 prostate = system: DU-145 prostate
MALME-3M melanoma = system: MALME-3M melanoma
ACHN renal = system: ACHN renal
LOX IMVI melanoma = system: LOX IMVI melanoma
HT29 colon = system: HT29 colon
SN12C renal = system: SN12C renal
OVCAR-8 ovarian = system: OVCAR-8 ovarian
PC-3 prostate = system: PC-3 prostate
SK-OV-3 ovarian = system: SK-OV-3 ovarian
MDA-MB-435 melanoma = system: MDA-MB-435 melanoma
NCI-H226 lung = system: NCI-H226 lung

N#CCC1CCN(c2nc(Nc3ccc(N4CCC(O)CC4)cc3)c3c(=O)[nH]ncc3n2)CC1
GI50 (OVCAR-3 ovarian): 1130 nM | TGI (OVCAR-3 ovarian): > 100000 nM | GI50 (SK-MEL-28 melanoma): 810 nM | TGI (SK-MEL-28 melanoma): > 100000 nM | GI50 (IGROV1 ovarian): 239 nM | TGI (IGROV1 ovarian): 3480 nM | GI50 (BT-549 breast): 538 nM | TGI (BT-549 breast): 2250 nM | GI50 (SNB-75 CNS): 1240 nM | TGI (SNB-75 CNS): 3170 nM | GI50 (SF-539 CNS): 793 nM | TGI (SF-539 CNS): 2390 nM | GI50 (NCI-H460 NSCLC): 319 nM | TGI (NCI-H460 NSCLC): > 100000 nM | GI50 (HOP-62 NSCLC): 3710 nM | TGI (HOP-62 NSCLC): > 100000 nM | GI50 (M14 melanoma): 346 nM | TGI (M14 melanoma): > 100000 nM | GI50 (SR leukemia): 180 nM | TGI (SR leukemia): 327 nM | GI50 (TK-10 renal): 425 nM | TGI (TK-10 renal): 4850 nM | GI50 (SK-MEL-5 melanoma): 338 nM | TGI (SK-MEL-5 melanoma): > 100000 nM | GI50 (CAKI-1 renal): 349 nM | TGI (CAKI-1 renal): > 100000 nM | GI50 (HCT-116 colon): 336 nM | TGI (HCT-116 colon): > 100000 nM | GI50 (COLO 205 colon): 240 nM | TGI (COLO 205 colon): 921 nM | GI50 (A549 NSCLC): 365 nM | TGI (A549 NSCLC): > 100000 nM | GI50 (HS 578T breast): 673 nM | TGI (HS 578T breast): 3540 nM | GI50 (SW-620 colon): 441 nM | TGI (SW-620 colon): 2210 nM | GI50 (RXF 393 renal): 893 nM | TGI (RXF 393 renal): 3270 nM | GI50 (NCI-H23 lung): 293 nM | TGI (NCI-H23 lung): > 100000 nM | GI50 (SF-268 CNS): 1430 nM | TGI (SF-268 CNS): 9430 nM | GI50 (UACC-257 melanoma): > 100000 nM | TGI (UACC-257 melanoma): > 100000 nM | GI50 (CCRF-CEM leukemia): 332 nM | TGI (CCRF-CEM leukemia): > 100000 nM | GI50 (MDA-MB-231 breast): 5420 nM | TGI (MDA-MB-231 breast): > 100000 nM | GI50 (NCI-H522 lung): 196 nM | TGI (NCI-H522 lung): 929 nM | GI50 (A498 renal): 804 nM | TGI (A498 renal): > 100000 nM | GI50 (HCC-2998 colon): 378 nM | TGI (HCC-2998 colon): 2910 nM | GI50 (HOP-92 NSCLC): 329 nM | TGI (HOP-92 NSCLC): > 100000 nM | GI50 (OVCAR-4 ovarian): > 100000 nM | TGI (OVCAR-4 ovarian): > 100000 nM | GI50 (K-562 leukemia): 482 nM | TGI (K-562 leukemia): > 100000 nM | GI50 (SNB-19 CNS): 2750 nM | TGI (SNB-19 CNS): > 100000 nM | GI50 (EKVX NSCLC): 277 nM | TGI (EKVX NSCLC): > 100000 nM | GI50 (T-47D breast): 4390 nM | TGI (T-47D breast): > 100000 nM | GI50 (MDA-MB-468 breast): 1010 nM | TGI (MDA-MB-468 breast): 3470 nM | GI50 (HCT-15 colon): 453 nM | TGI (HCT-15 colon): > 100000 nM | GI50 (MCF7 breast): 254 nM | TGI (MCF7 breast): > 100000 nM | GI50 (OVCAR-5 ovarian): 602 nM | TGI (OVCAR-5 ovarian): > 100000 nM | GI50 (DU-145 prostate): 704 nM | TGI (DU-145 prostate): > 100000 nM | GI50 (MALME-3M melanoma): 472 nM | TGI (MALME-3M melanoma): > 100000 nM | GI50 (ACHN renal): 547 nM | TGI (ACHN renal): > 100000 nM | GI50 (LOX IMVI melanoma): 490 nM | TGI (LOX IMVI melanoma): 2600 nM | GI50 (HT29 colon): 427 nM | TGI (HT29 colon): > 100000 nM | GI50 (SN12C renal): 243 nM | TGI (SN12C renal): > 100000 nM | GI50 (OVCAR-8 ovarian): 5180 nM | TGI (OVCAR-8 ovarian): > 100000 nM | GI50 (PC-3 prostate): > 100000 nM | TGI (PC-3 prostate): > 100000 nM | GI50 (SK-OV-3 ovarian): 235 nM | TGI (SK-OV-3 ovarian): 4810 nM | GI50 (MDA-MB-435 melanoma): 311 nM | TGI (MDA-MB-435 melanoma): > 100000 nM | GI50 (NCI-H226 lung): 281 nM | TGI (NCI-H226 lung): > 100000 nM
